Laboratory results published in patent publication US20130324412A1, “N-ALKOXYAMIDES OF 6-(SUBSTITUTED PHENYL)-4-AMINOPICOLINATES AND 2-(SUBSTITUTED PHENYL)-6-AMINO-4-PYRIMIDINECARBOXYLATES AND THEIR USE AS SELECTIVE HERBICIDES FOR CROPS” (DOW AGROSCIENCES LLC, priority 2009, published 2013).

Experiments:
Assay type in all cases: in vivo
corn (Zea mays) = experiment: General postemergence herbicidal activity, corn; conditions: post-emergence, 336 h, 70 g ai/ha, postemergence, after 14 d, 0 = no injury, 100 = complete kill, read-out: ZEAMX % Visual Injury
In short: (§1)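 Greenhouse plants at first to second true leaf stage sprayed overhead at 187 L/ha in acetone/DMSO with crop oil concentrate and surfactant, at a high rate plus ½× to 1/16× serial dilutions. Injury rated visually after 14 d against solvent-blank controls, 0 (none) to 100% (complete kill).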

[1] = test system: velvetleaf (Abutilon theophrasti); experiment: General postemergence herbicidal activity, velvetleaf; conditions: post-emergence, 336 h, 70 g ai/ha, postemergence, after 14 d, 0 = no injury, 100 = complete kill, read-out: ABUTH % Visual Injury
In short: as §1

[2] = test system: wild buckwheat (Polygonum convululus); experiment: General postemergence herbicidal activity, wild buckwheat; conditions: post-emergence, 336 h, 70 g ai/ha, postemergence, after 14 d, 0 = no injury, 100 = complete kill, read-out: POLCO % Visual Injury
In short: as §1

[3] = test system: sugar beet (Beta vulgaris); experiment: Postemergence herbicidal activity in sugar beet, crop; design: unit not given here; conditions: visual rating after 21 d, probit analysis, dose to kill or control 20 percent
Procedure: (§2) Seeds of sugar beet and the desired weed species were planted in Sun Gro MetroMix® 360 planting mixture, which typically has a pH of 6.0 to 6.8 and an organic matter content of about 30 percent, in plastic pots with a surface area of 95 cm^2. When required to ensure good germination and healthy plants, a fungicide treatment and/or other chemical or physical treatment was applied. The plants were grown for 15-28 d in a greenhouse with an approximate 15-h photoperiod which was maintained at about 23-29° C. during the day and 22-28° C. during the night. Nutrients and water were added on a regular basis and supplemental lighting was provided with overhead metal halide 1000-Watt lamps as necessary. The sugar beet plants were utilized for testing when they reached the third or fourth true leaf stage. The weed species were utilized at the fourth true leaf stage.
(§3) A weighed amount, determined by the highest rate to be tested, of each test compound was dissolved in 4 mL of a 97:3 v/v mixture of acetone and DMSO to obtain concentrated stock solutions. […] The concentrated stock solutions obtained were diluted with 20 mL of an aqueous mixture containing acetone, water and Agri-Dex crop oil concentrate, in a 16.7:82.1:1.25 v/v ratio to obtain spray solutions containing the highest application rates. Additional application rates were obtained by serial dilution of 12 mL of the high rate solution into a solution containing 2 mL of 97:3 v/v mixture of acetone and DMSO and 10 mL of an aqueous mixture containing acetone, water and Agri-Dex crop oil concentrate, in a 16.7:82.1:1.25 v/v ratio to obtain ½×, ¼×, ⅛× and 1/16× rates of the high rate. Compound requirements are based upon a 12 mL application volume at a rate of 187 L/ha. Formulated compounds were applied to the plant material with an overhead Mandel track sprayer equipped with 8002E nozzles calibrated to deliver 187 L/ha over an application area of 0.503 m^2 at a spray height of 18 inches (43 cm) above the average plant canopy height. Control plants were sprayed in the same manner with the solvent blank.
(§4) The treated plants and control plants were placed in a greenhouse as described above and watered by sub-irrigation to prevent wash-off of the test compounds. After 21 d, the condition of the test plants as compared with that of the untreated plants was determined visually and scored on a scale of 0 to 100 percent where 0 corresponds to no injury and 100 corresponds to complete kill.
(§5) By applying the well-accepted probit analysis as described by J. Berkson in Journal of the American Statistical Society 1953, 48, 565, and by D. Finney in “Probit Analysis” Cambridge University Press (1952), the above data can be used to calculate GR20 and GR80 values, which are defined as growth reduction factors that correspond to the effective dose of herbicide required to kill or control 20 percent or 80 percent, respectively, of a target plant.

[4] = test system: lambsquarters (Chenopodium album); experiment: Postemergence herbicidal activity in sugar beet, lambsquarters; design: unit not given here; conditions: sugar beet test, visual rating after 21 d, probit analysis, dose to kill or control 80 percent
Procedure: as §2, §3, §4, §5

[5] = test system: purple deadnettle (Lamium purpureum); experiment: Postemergence herbicidal activity in sugar beet, purple deadnettle; design: unit not given here; conditions: sugar beet test, visual rating after 21 d, probit analysis, dose to kill or control 80 percent
Procedure: as §2, §3
as §4, with “kill. […]” for “kill.”

| Structure (SMILES) | plant injury at 70 g/ha (corn (Zea mays)) [%] | pest or weed control at 70 g/ha [1] [%] | pest or weed control at 70 g/ha [2] [%] | BEAVA GR20 [3] | CHEAL GR80 [4] | LAMPU GR80 [5] |
| --- | --- | --- | --- | --- | --- | --- |
| COc1c(Cl)ccc(-c2cc(N)c(Cl)c(C(=O)NOCC(C)C)n2)c1F [Compound 1, 4-amino-3-chloro-6-(4-chloro-2-fluoro-3-methoxyphenyl)-N-(2-methylpropoxy)picolinamide] | 0 | 100 | 100 |  |  |  |
| CONC(=O)c1nc(-c2ccc(Cl)c(OC)c2F)cc(N)c1Cl [Compound 2, 4-Amino-3-chloro-6-(4-chloro-2-fluoro-3-methoxyphenyl)-N-methoxypicolinamide] | 10 | 100 | 100 | >35 | 21.5 | <4.38 |
